This is an account of results in patent US5798362A, “Quinazolinyl-amino derivatives having α-antagonist activity” (Recordati S.A. Chemical and Pharmaceutical Company, priority 1994, dated 1998).

Molecules are shown by their SMILES. Structures can show the parent of a compound that is named as a salt. Where two headings read alike, the source gives them in different places.

By IC50 is commonly meant the concentration at which inhibition is half-maximal.

Data set [1] has as its target α1-receptors ([3H]prazosin). Put plainly: [3H]Prazosin binding (α1-receptors), rat cerebral cortices. The conditions noted are these: rat cerebral cortex, 0.35 nM [3H]prazosin, 25° C., 30 min; read-out: [3H] prazosine IC50. How it is done:
Rat cerebral cortices were homogenized in 50 volumes of original wet weight of ice-cold 50 mM Tris-HCl buffer pH 7.4. The homogenates were centrifuged at 48,000 × g for 10 minutes, and the pellets were resuspended in the same volume of ice-cold buffer, centrifuged and resuspended two more times. […] The incubations were terminated by rapid filtration through Whatman GF/B, filters using a Brandel cell harvester and the filters were washed with 3×3 ml of ice-cold buffer. The radioactivity retained on the filters was determined by liquid scintillation counting. Data analysis The inhibition of specific binding of the radioligands by the tested drugs was analyzed to estimate the IC50 value by using the non-linear curve-fitting program Allfit [A. De Lean et al., Am. J. Physiol.

Data set [2] in a line: in vivo. The conditions noted are these: mouse. How it is done: 20-30 g b.w., were obtained from Charles River, Italy. Animals were housed with free access to food and water and maintained on forced light-dark cycle at 22°-24° C. until the day of experiments.
The acute toxicity of synthesized compounds was evaluated in female Albino Swiss mice after intraperitoneal and oral administration. Four logarithmic scaled doses of the compounds were dissolved or suspended in 0.5% Methocel and administered in a volume of 10 ml/kg to groups of 4 mice/dose. Mortality was recorded 7 days after the administration.

In data set [3] the test system is dyastolic arterious pressure. Put plainly: Hypotensive activity in the normotensed anesthetized rat. Format: in vivo. The settings on record: iv, endovenous administration, read-out: DE25 (dose which induces a lowering of 25% of the dyastolic arterious pressure). Here is the method: (§1) Male Sprague Dawley rats (Crl: CD' BR) of 175-300 g b.w., male spontaneously hypertensive rats, Okamoto strain, female Albino Swiss mice [Crl:CD-1 (ICR) BR] 20-30 g b.w., were obtained from Charles River, Italy. Animals were housed with free access to food and water and maintained on forced light-dark cycle at 22°-24° C. until the day of experiments.
(§2) Evaluation of the antihypertensive activity in chateterized spontaneously hypertensive rat (SH) chronic awake and of the hypotensive activity in the normotensed anesthethized rat
Normotensed rats with were prepared surgically at the moment of the test, after anesthesia with pentobarbital. Suitable chateters were introduced in the left carotid artery and the right jugular vein. The arterious chateter end was connected to a pressure transductor which sends the signal to a polygraph preamplifier. About 30' before the administration the arterious pressure was monitored and the registration of the parameters was performed after the administration, at various time according to the test protocol.
For the endovenous administration the administered volum was 0.5-1 ml/Kg, while for the oral administration was 5 ml/Kg.
Evaluation of data: in so far as the espression of the results is concerned, the pressure data were reported as percentage of the variation in respect to the base values.

For data set [4], the system named is dyastolic arterious pressure. Put plainly: Antihypertensive activity in catheterized awake spontaneously hypertensive rat (SHR). Format: in vivo. The conditions noted are these: oral administration, read-out: DE25 (dose which induces a lowering of 25% of the dyastolic arterious pressure). How it is done: as §1, §2
The SH rats are surgically prepared at least 24 hours before the test. The surgical operation was performed under neuroleptoanalgesia or barbituric anesthesia; the right carotid artery was exposed and a chateter suitable in dimensions and material was introducted in the vessel up to the aortic arch. […]
For endovenous administrations a second chateter similar to the one above described was introduced during the surgical operation into the left jugular vein and brought to the exterior as the arterious chateter. […] About 30' before administration the arterious pressure was monitored and the registration of the parameters was performed after administration at different times according to the test protocol. […]

Data set [5] has as its target T1, cloned α1A adrenoceptor (Bos taurus, UniProt P18130).
T1 construct: expressed in transfected cells; host or cells: COS-7 (transient)
T1 sequence (P18130 1-466): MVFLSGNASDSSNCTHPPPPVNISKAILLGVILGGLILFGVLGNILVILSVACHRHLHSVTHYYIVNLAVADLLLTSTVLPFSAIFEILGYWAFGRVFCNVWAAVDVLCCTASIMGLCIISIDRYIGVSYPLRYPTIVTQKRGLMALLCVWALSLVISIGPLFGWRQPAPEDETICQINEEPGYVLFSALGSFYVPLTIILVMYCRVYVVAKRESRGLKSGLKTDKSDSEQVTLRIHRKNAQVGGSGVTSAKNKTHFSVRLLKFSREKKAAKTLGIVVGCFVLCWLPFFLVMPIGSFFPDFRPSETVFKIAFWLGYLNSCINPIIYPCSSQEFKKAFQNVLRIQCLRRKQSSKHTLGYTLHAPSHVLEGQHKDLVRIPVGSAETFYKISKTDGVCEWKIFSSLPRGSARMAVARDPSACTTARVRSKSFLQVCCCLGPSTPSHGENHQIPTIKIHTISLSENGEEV
Put plainly: Radioligand binding, cloned α1A adrenoceptor (previously α1C) expressed in COS-7 cells. The settings on record: bovine brain α1A in COS-7 cells; mean of 2-4 experiments in triplicate, agreed within 10%. How it is done:
(§3) Cloned animal α1 adrenoceptors
(§4) COS-7 cells were grown as monolayers in Dulbecco's modified Eagle's medium (DMEM), supplemented with 25 mM glucose, 10% bovine calf serum, 100 units/ml penicillin and 100 μg/ml streptomicyn sulfate.
(§5) Transfected cells from colture flask were washed two times with 5 ml phosphate buffered saline (PBS), scraped into 2 ml of 5 mM Tris-HCl, pH 7.4, containing 5 mM EDTA and 10 μM leupeptin, and lysed by sonication. The cell lysates were pelleted at 30000xg for 15 min at 4° C. and washed three times with 10 ml ice-cold 50 mM Tris-HCl, pH 7.4. Membranes were resuspended in 50 mM Tris-HCl, pH 7.4, containing 10 μM pargyline and 0.1% ascorbic acid, quickly frozen and stored at -70° C. until utilized.
(§6) Radioligand binding assays
Non-specific binding was determined in presence of 100 μM phentolamine. The reaction mixture was incubated for 30 min at 25° C. and then stopped by the addition of ice cold Tris-HCl buffer and rapid filtration through 0.2% polyethyleneimine pretreated Whatman GF/B fiber filters using Brandel cell harvester. The filters were then washed with 3×3 ml of ice-cold buffer and the radioactivity retained on the filters was counted in 10 ml of Filter Count (Packard) in a liquid scintillation spectrometer with a counting efficacy of 40%.
The inhibition of specific binding of the radioligands by the tested drugs was analyzed to estimate the IC50 value by using the non-linear curve-fitting program Allfit [A. De Lean et al., Am. J. Physiol.

For data set [6], the target named is T2, cloned α1B adrenoceptor (Mesocricetus auratus, UniProt P18841).
T2 sequence (P18841 1-515): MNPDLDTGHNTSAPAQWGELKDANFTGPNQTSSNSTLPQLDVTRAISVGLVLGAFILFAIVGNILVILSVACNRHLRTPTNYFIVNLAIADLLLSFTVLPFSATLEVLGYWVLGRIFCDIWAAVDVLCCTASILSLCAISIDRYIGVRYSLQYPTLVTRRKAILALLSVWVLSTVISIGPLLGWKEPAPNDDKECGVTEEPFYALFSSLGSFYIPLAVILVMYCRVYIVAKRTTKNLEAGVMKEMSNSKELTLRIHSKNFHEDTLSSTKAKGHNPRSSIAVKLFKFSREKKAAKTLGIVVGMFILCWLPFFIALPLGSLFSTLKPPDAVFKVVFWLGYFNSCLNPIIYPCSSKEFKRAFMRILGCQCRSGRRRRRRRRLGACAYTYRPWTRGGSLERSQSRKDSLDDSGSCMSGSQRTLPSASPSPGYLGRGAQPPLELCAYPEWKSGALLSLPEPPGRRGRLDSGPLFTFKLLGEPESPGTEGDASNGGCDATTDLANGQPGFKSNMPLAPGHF
Put plainly: biochemical. The conditions noted are these: syrian hamster α1B in COS-7 cells; mean of 2-4 experiments in triplicate, agreed within 10%. Format: binding. How it is done: as §3, §4, §5, §6
(§7) Non-specific binding was determined in presence of 100 μM phentolamine. […] The filters were then washed with 3×3 ml of ice-cold buffer and the radioactivity retained on the filters was counted in 10 ml of Filter Count (Packard) in a liquid scintillation spectrometer with a counting efficacy of 40%.
(§8) The inhibition of specific binding of the radioligands by the tested drugs was analyzed to estimate the IC50 value by using the non-linear curve-fitting program Allfit [A. De Lean et al., Am. […]

In data set [7] the target is T3, cloned α1D adrenoceptor (Rattus norvegicus, UniProt P23944).
T3 construct: expressed in transfected cells; host or cells: COS-7 (transient)
T3 sequence (P23944 1-561): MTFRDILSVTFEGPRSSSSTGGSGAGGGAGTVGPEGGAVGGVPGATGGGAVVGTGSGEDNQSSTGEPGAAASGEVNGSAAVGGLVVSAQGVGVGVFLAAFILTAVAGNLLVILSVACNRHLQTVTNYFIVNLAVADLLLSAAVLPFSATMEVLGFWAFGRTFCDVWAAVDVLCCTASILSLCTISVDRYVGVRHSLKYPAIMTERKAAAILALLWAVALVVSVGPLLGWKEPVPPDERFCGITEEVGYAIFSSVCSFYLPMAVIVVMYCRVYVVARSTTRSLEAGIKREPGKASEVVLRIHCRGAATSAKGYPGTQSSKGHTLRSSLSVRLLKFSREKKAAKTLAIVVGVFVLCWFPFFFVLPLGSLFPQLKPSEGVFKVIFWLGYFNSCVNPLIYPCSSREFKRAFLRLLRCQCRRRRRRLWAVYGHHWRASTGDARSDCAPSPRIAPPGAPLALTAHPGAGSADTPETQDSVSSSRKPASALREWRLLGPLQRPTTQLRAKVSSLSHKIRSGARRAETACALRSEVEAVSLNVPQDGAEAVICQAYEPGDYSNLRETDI
Put plainly: Radioligand binding, cloned α1D adrenoceptor (previously α1A/D) expressed in COS-7 cells. The settings on record: rat brain α1D in COS-7 cells; mean of 2-4 experiments in triplicate, agreed within 10%. How it is done: as §3, §4, §5, §6, §7, §8

[8] abbreviates: ip, mice, intraperitoneal, mortality 7 days after administration, read-out: DL50 i.p.
Where [9] appears, read: mice, oral, mortality 7 days after administration, read-out: DL50 p.o.

For the compound `COc1cc2nc(N3CCN(C(=O)CC(=O)c4ccccc4)CC3)nc(N)c2cc1OC` [Example 13, 4-Amino-6,7-dimethoxy-2-[4-(2-benzoylacetyl)-1-piperazinyl]-quinazoline], the IC50 in data set [1] was found to be 7 nM. In addition, the LD50 at 168 h was 142 mg/kg in data set [2] (setting [8]) and greater than 3000 mg/kg in data set [2] (setting [9]). The ED25 in data set [3] is 0.056 mg/kg; in data set [4], 2.42 mg/kg.

In the case of `COc1cc2nc(N3CCN(C(=O)COc4c(OC)cccc4C(C)C)CC3)nc(N)c2cc1OC.Cl` [Example 24, 4-Amino-6,7-dimethoxy-2-{4-[(2-methoxy-6-isopropylphenoxy)acetyl]-1-piperazinyl}-quinazoline hydrochloride], the 50% inhibitory concentration (IC50) in data set [1] is 28 nM; in data set [5], 17.2 nM. Further, the LD50 at 168 h in data set [2] (ip) is 268 mg/kg; in data set [2] (po) it was greater than 3000 mg/kg.

As for `COc1cc2nc(N3CCN(C(=O)C(C)Oc4c(OC)cccc4C(C)C)CC3)nc(N)c2cc1OC.Cl` (centres unmarked) [Example 26, 4-Amino-6,7-dimethoxy-2-{4-[2-(2-methoxy-6-isopropylphenoxy)propionyl]-1-piperazinyl}-quinazoline hydrochloride], in data set [1], the IC50 came to 123 nM. Moreover, the LD50 at 168 h in data set [2] (setting [8]) came out at 115 mg/kg; in data set [2] (setting [9]) it was 1960 mg/kg.

Regarding `COc1cc2nc(N(C)Cc3ccccc3)nc(N)c2cc1OC` [Example 28, 4-Amino-6,7-dimethoxy-2-(N-benzyl-N-methylamino)-guinazoline hydrochloride], the IC50 in data set [1] is 70 nM. In addition, the figures for the LD50 at 168 h in data set [2] (setting [8]) and in data set [2] (setting [9]) were 89 mg/kg and 293 mg/kg, respectively.

Take `COc1cc2nc(N(C)CCC(c3ccccc3)c3ccccc3)nc(N)c2cc1OC` [Example 29, 4-Amino-6,7-dimethoxy-2-(N-methyl-3,3-diphenylpropylamino)-guinazoline hydrochloride]: the IC50 in data set [1] was found to be 85 nM. Also, the LD50 at 168 h in data set [2] (setting [8]) was 163 mg/kg; in data set [2] (setting [9]), greater than 2000 mg/kg.

As to `COc1cc2nc(N(C)CCCN3CCN(c4ccccc4OC)CC3)nc(N)c2cc1OC.Cl.Cl.O.O` [Example 31, 4-Amino-6,7-dimethoxy-2-{N-methyl-N-{3-[4-(2-methoxyphenyl)-1-piperazinyl]propyl}amino}-quinazoline dihydrochloride dihydrate], the IC50 in data set [1] was found to be 12 nM. Besides, the LD50 at 168 h in data set [2] (setting [8]) is 70 mg/kg; in data set [2] (setting [9]), greater than 2000 mg/kg.

On to `COc1cc2nc(N3CCC(c4ccccc4)(c4ccccc4)CC3)nc(N)c2cc1OC` [Example 32, 4-Amino-6,7-dimethoxy-2-(4,4-diphenyl-1-piperidinyl)-guinazoline hydrochloride . 0.65 H2 O], for which the half-maximal inhibitory concentration (IC50) in data set [1] was found to be 259 nM. For the same compound, the LD50 at 168 h in data set [2] (setting [8]) is greater than 500 mg/kg; in data set [2] (setting [9]), greater than 2000 mg/kg.

Turning to `COc1ccc(CC2c3cc(OC)c(OC)cc3CCN2c2nc(N)c3cc(OC)c(OC)cc3n2)cc1OC` (centres unmarked) [Example 33, 4-Amino-6,7-dimethoxy-2-[1-(3,4-dimethoxybenzyl)-6,7-dimethoxy-1,2,3,4-tetrahydroisoguinolin-2-yl]-quinazoline hydrochloride hydrate], the IC50 in data set [1] worked out at 287 nM; in data set [5], 950 nM; in data set [6], 206 nM; in data set [7], 1550 nM. Further, the LD50 at 168 h in data set [2] (setting [8]) is 884 mg/kg; in data set [2] (setting [9]), greater than 3000 mg/kg.

Take `COc1cc2nc(N3CCN(C(=O)C4CCCO4)CC3)nc(N)c2cc1OC` (centres unmarked) [Terazosin, reference compound]: the figures for the half-inhibitory concentration (IC50) in data set [5] and in data set [7] were 66.6 nM and 106 nM, respectively.
